From US20020198221A1, “N-methyl-N-(3-{3-[2-thienylcarbonyl]-pyrazol-[1,5-alpha]-pyrimidin-7-yl}phenyl)acetamide and compositions and, methods related thereto” (priority 1999, published 2002)
“Also recorded” adds a separate entry of the source.

Tests used:
rats [1] = test: rod walking test; assay type: in vivo; conditions: Rattus norvegicus, oral
Experimental: (§1) The sedative effects of Compound 1 were measured in rats using a panel of standard tests which monitor the effects of drugs on motor activity, muscle relaxation and motor coordination.

squirrel monkeys [2] = test: vigilance test (reaction time) in squirrel monkeys; assay type: in vivo, squirrel monkey; conditions: >1 mg/kg orally one hour before testing
Description: Vigilance tests based on reaction time measurements in monkeys measure drug induced slowing of responses and decreases in attentional or cognitive processes. Squirrel monkeys were trained to respond to a visual trigger by bar pressing for a food reward.

rats [3] = test: potentiation of ETOH-induced loss of righting response, ETOH 60 minutes after dosing; assay type: in vivo, rat; conditions: for ETOH Liability Index: ratio ED50 motor activity / MED ETOH potentiation; for Minimum Effective Dose (MED mg/kg) to potentiate ETOH-induced loss of righting response: rats, ETOH 3.2 g/kg i.p. 60 minutes after dosing
Description: Benzodiazepines and barbiturate sedative-hypnotics produce a profound potentiation of the deleterious effects of ethanol (ETOH) in man and animals (Ayd, supra). Intraperitoneal ETOH alone, when administered to rats at a dose of 3.2 g/kg, produces a reliable loss of righting response. The loss of righting response caused by ETOH can be used to measure the possible interaction of ETOH with test drugs. This is done by delivering the ETOH and a test drug sequentially, and determining the Minimum Effective Dose of test drug which will potentiate the time that ETOH produces the loss of righting response. The ETOH Liability Index for a drug can be determined by calculating the ratio of (1) the ED50 of the test drug to decrease motor activity (a measure of sedation) to (2) the Minimum Effective Dose (MED) of the test drug to potentiate the time for ETOH-induced loss of righting response.
ETOH Liability Indices were determined experimentally for Compound 1, flurazepam and triazolam by intraperitoneally delivering ETOH (3.2 g/kg) to the animals 60 minutes after dosing with each test drug (see Table 2 below).

rats [4] = test: sleep duration in rats; assay type: in vivo, rat
Experimental: (§2) Compound 1 produced dose-related increases in sleep duration in rats, with a minimum effective dose of 2.0 mg/kg.

squirrel monkeys [5] = test: Squirrel Monkey Conflict Procedure; assay type: in vivo
Experimental: The Squirrel Monkey Conflict Procedure involves monkeys which are initially trained to press a bar to receive a food reward. In later sessions the animals were given occasional electrical shocks following randomly selected bar presses. These animals responded to the conflict situation by substantially lowering their levels of bar-pressing activity. […] This increase in conflict response reflects the anxiolytic effects of the drug. The increase drops off at 4.0 mg/kg, which may be due to a subtle sedative effect of the compound which begins developing in this dose range. The inverted-U shaped dose-response function described above for Compound 1 is consistent with the profile of other sedative-hypnotic drugs of the benzodiazepine-ligand class, and reflects the sedative properties of these drugs (Cook and Sepinwall, supra).

rats [6] = test: motor activity in rats (activity meter); assay type: in vivo, rat; conditions: for ED50: Rattus norvegicus
Experimental: as §1
(§3) This latter compound is well characterized as a competitive antagonist at the benzodiazepine site, which can reverse the effects of benzodiazepine site agonists.
(§4) Administration of benzodiazopines to animals and to man for periods of several weeks can result in a tolerance to their sedative effects (Finkle, supra). In order to assess tolerance to Compound 1, its effects were tested on rat motor activity, and on grip strength using the inclined screen procedures after single and repeated administrations. The results of these studies were then compared to results gathered from rats which had received similar dosings of triazolam.

[7] = target: benzodiazepine site on the GABAA receptor; test: [3H]flunitrazepam binding to rat cerebellum membranes; conditions: read-out: IC50, inhibition of [3H]flunitrazepam binding
rats [8] = test: prevention of chemically induced convulsions in rats; assay type: in vivo, rat; conditions: for ED50: Rattus norvegicus
Description: Benzodiazepine sedative-hypnotic agents are potent anticonvulsants in animals, and are used clinically for the treatment of status epilepticus. Oral doses of Compound 1 were effective in blocking convulsions in rats which resulted from injections of agents know to induce convulsion (see Table 1 below).

squirrel monkeys [9] = test: EEG studies in squirrel monkeys; assay type: in vivo, squirrel monkey; conditions: 4.0 mg/kg i.m.
Experimental: as §2

rats [10] = test: inclined screen grip strength test; assay type: in vivo, rat; conditions: for ED50: Rattus norvegicus
Experimental: as §1, §3, §4

rats [11] = test: potentiation of ETOH delivered 24 hours after dosing (hangover liability); assay type: in vivo, rat; conditions: for Hangover Liability Index: ETOH 24 hours after administration; for potentiation of ETOH delivered 24 hours after drug treatment: rat, in vivo
Experimental: The important observation that Compound 1 causes very little potentiation of ETOH was extended by determining a Hangover Liability Index, the measure of the ability of the drug to potentiate ETOH 24 hours after administration (see Table 3 below). Sedative-hypnotic agents have been reported to produce drowsiness, confusion and other side effects in man on the day following the normal overnight use of these compounds.

[12] = target: benzodiazepine site on the GABAA receptor; test: [3H]flunitrazepam binding to rat cortex; conditions: for IC50: rat cortex, read-out: IC50, displacement of [3H]flunitrazepam binding
rats [13] = test: one-trial passive avoidance test (amnesia); assay type: in vivo, rat; conditions: for Amnestic Liability Index: ratio ED50 decreased motor activity / MED to produce amnesia
Experimental: This effect can be studied in rats by the one-trial passive avoidance test. In this test an undrugged, naive rat is given an electric shock when it moves from the illuminated side to the darkened side of a two-compartment chamber. When tested for recall of this training 24 hours later, a placebo-injected animal will show excellent recall of the aversive training, and thus a high latency time for entering the darkened side.

rats [14] = test: prevention of electrical shock induced convulsions; assay type: in vivo; conditions: Rattus norvegicus; oral; 150 mA, 60 Hz transcorneal shock for 0.3 seconds; read-out: ED50 blocking electrical shock induced convulsions
GABAA receptor = test: [35S]TBPS binding to rat cortex membranes
Description: TBPS binds to a site on the GABAA receptor which is closely associated with the chloride channel, and an increase in TBPS binding correlates with increased activation of the chloride conductance (i.e., enhanced GABAA receptor function). Compounds which act as agonists at the benzodiazepine site increase TBPS binding to varying degrees, which reflects their relative efficacies.

rats [15] = test: Thirsty Rat Conflict Procedure; assay type: in vivo
Experimental: The Thirsty Rat Conflict Procedure involves rats which are deprived of water for 48 hours. They are then given brief electrical shocks following each 20th lick of a drinking tube. These shocks create a “conflict situation” which results in a marked decrease in licking (drinking) behavior.

rats [16] = test: panel of standard tests for sedative effects in rats (motor activity, muscle relaxation, motor coordination); assay type: in vivo, rat
Experimental: as §1

[17] = 3.1 mg/kg Compound 1 p.o. + 10 mg/kg Ro 15-1788 i.p.
[18] = Table 2, read-out: Decrease in Motor Activity (ED50 mg/kg)
[19] = fourth day of daily dosing, read-out: ED50 motor activity, tolerance study
[20] = single administration, read-out: ED50 motor activity, tolerance study
[21] = inclined screen, fourth day of daily dosing, read-out: ED50 grip strength, tolerance study
[22] = inclined screen, single administration, read-out: ED50 grip strength, tolerance study

## CC(=O)N(C)c1cccc(-c2ccnc3c(C(=O)c4cccs4)cnn23)c1 [Compound 1, N-methyl-N-(3-{3-[2-thienylcarbonyl]-pyrazol-[1,5-α]-pyrimidin-7-yl}phenyl)acetamide]
Rats [1]
  ED50: 3 mg/kg
Squirrel monkeys [2]
  effect on accuracy and latency of responses: dose related decrements in both the accuracy and latency of the responses
Rats [3]; rat, in vivo, oral, 60 min
  times less ETOH liability compared to triazolam and flurazepam: ≥ 10 times
Rats [3]
  ETOH Liability Index: 0.48
  Minimum Effective Dose (MED mg/kg) to potentiate ETOH-induced loss of righting response: 2.5 mg/kg
Rats [4]
  minimum effective dose for increase in sleep duration: 2.0 mg/kg
Squirrel monkeys [5]; 4.0 mg/kg
  increase in conflict response: drops off
Squirrel monkeys [5]; oral 2.0 mg/kg
  increase above baseline responses to conflict situation: 100%
Rats [6]; [17]
  effect on motor/locomotor activity with Ro 15-1788 co-treatment: antagonize the decreases in motor activity; also recorded: reversed
Rats [6]; [18]
  ED50: 1.2 mg/kg
Rats [6]; [19]
  ED50: 14.5 mg/kg
Rats [6]; po, activity meter, read-out: ED50 for decrease in motor activity
  ED50: 1.2 mg/kg
Rats [6]; [20]
  ED50: 2.4 mg/kg
[7]
  IC50: 2 nM
Rats [8]; rats, oral, inducer Bicuculline (iv), read-out: ED50 preventing convulsion
  ED50: 2.3 mg/kg
Rats [8]; rats, oral, inducer Pentylenetetrazol (iv), read-out: ED50 preventing convulsion
  ED50: 2.5 mg/kg
Rats [8]; read-out: ED50 preventing convulsion, rats, oral, inducer Picrotoxin (sc)
  ED50: 1.9 mg/kg
Rats [8]; read-out: ED50 preventing convulsion, rats, oral, inducer Strychnine (sc)
  ED50: 4.4 mg/kg
Rats [8]; all five methods (four chemical inducers and electrical shock)
  anticonvulsant potency relative to reference drugs: less than that of triazolam and greater than that of flurazepam
Squirrel monkeys [9]
  changes in EEG power spectrum: a relative decrease in alpha activity and an increase in beta activity
Rats [10]; [17]
  effect on grip strength (inclined screen) with Ro 15-1788 co-treatment: reverse the impairment of grip strength; also recorded: reversed
Rats [10]; [21]
  ED50: 18.3 mg/kg
Rats [10]; [22]
  ED50: 2.6 mg/kg
Rats [10]; po, inclined screen grip strength test, read-out: ED50 for muscle relaxant effects
  ED50: 2.7 mg/kg
Rats [11]
  Hangover Liability Index: 0.0
  potentiation of ETOH delivered 24 hours after drug treatment: failed to potentiate ETOH
[12]
  IC50: 9.8 nM
Rats [13]; rat, in vivo
  amnestic effect: small amnestic effect compared to triazolam or flurazepam
Rats [13]
  Amnestic Liability Index: 0.15
Rats [14]
  ED50: 5.5 mg/kg
GABAA receptor
  Emax, maximum enhancement of TBPS binding: 65%
Rats [15]; oral 0.3 mg/kg
  increase in number of shocks accepted vs vehicle control: 100%
Rats [16]
  sedative potency relative to reference drugs: approximately equipotent with triazolam and more potent than zolpidem and flurazepam

## CC(=O)Nc1cccc(-c2ccnc3c(C(=O)c4cccs4)cnn23)c1 [desmethyl metabolite of Compound 1]
[12]
  times less potent than Compound 1 in displacing radiolabeled flunitrazepam: approximately 74 times
  IC50: 725 nM
GABAA receptor
  Emax, maximum enhancement of TBPS binding: 28%
Rats [15]; 12 mg/kg
  effect in thirsty rat conflict model: without effect
Rats [16]; motor activity, inclined screen, rod walking
  sedative effects in the test panel: did not show sedative effects

## CN1C(=O)CN=C(c2ccccc2)c2cc(Cl)ccc21 [diazepam]
[12]
  IC50: 17 nM
GABAA receptor
  Emax, maximum enhancement of TBPS binding: 55%

## CN1C(=O)CN=C(c2ccccc2F)c2cc([N+](=O)[O-])ccc21 [flunitrazepam]
[12]
  IC50: 114 nM

## CCN(CC)CCN1C(=O)CN=C(c2ccccc2F)c2cc(Cl)ccc21 [flurazepam]
Rats [3]
  ETOH Liability Index: 4.98
  Minimum Effective Dose (MED mg/kg) to potentiate ETOH-induced loss of righting response: 5.0 mg/kg
Rats [6]; [18]
  ED50: 24.9 mg/kg
Rats [11]
  Hangover Liability Index: 2.5
  potentiation of ETOH delivered 24 hours after drug treatment: significantly potentiated
Rats [13]
  Amnestic Liability Index: 3.1
GABAA receptor
  Emax, maximum enhancement of TBPS binding: 71%

## Cc1nnc2n1-c1ccc(Cl)cc1C(c1ccccc1Cl)=NC2 [triazolam, reference compound]
Rats [3]
  ETOH Liability Index: 20
  Minimum Effective Dose (MED mg/kg) to potentiate ETOH-induced loss of righting response: .08 mg/kg
Rats [6]; [18]
  ED50: 1.6 mg/kg
Rats [6]; [19]
  ED50: > 100 mg/kg
Rats [6]; [20]
  ED50: 3.9 mg/kg
Rats [10]; [21]
  ED50: > 100 mg/kg
Rats [10]; [22]
  ED50: 5.1 mg/kg
Rats [11]
  Hangover Liability Index: 10
  potentiation of ETOH delivered 24 hours after drug treatment: significantly potentiated
[12]
  IC50: 0.5 nM
Rats [13]
  Amnestic Liability Index: 1.6
GABAA receptor
  Emax, maximum enhancement of TBPS binding: 78%

## Cc1ccc(-c2nc3ccc(C)cn3c2CC(=O)N(C)C)cc1 [zolpidem]
[12]
  IC50: 26 nM
